For one test, the system named is SK-Mel-28 melanoma cells. Description: BrdU Cell Proliferation Assay, docetaxel dose response with/without shRNA plasmid electroporation. Conditions: Homo sapiens.
The subject of test [1] is CCL-247 colorectal cancer cells. The description is as above. The class given is cell-based, human. Conditions: for IC50: Homo sapiens. As for the experimental part:
Docetaxel storage stock was made in 10 mM, with DMSO as solvent in a biological safety cabinet for sterility purposes. Docetaxel solution was stored in 4° C. fridge away from direct light. For each experiment, docetaxel storage solution was brought to room temperature to thaw, about 30 min before usage. A 5 uM working solution was made and further diluted 1:50. To 9.8 ml complete CCL-247 media, 0.2 ml 5 uM working solution was added so that 10 ul of the solution into final volume of 100 ul will make 10 nM. The 10 nM solution was serially diluted to make 5 nM, 2.5 nM, 1.25 nM, 0.625 nM, and 0.3124 nM.
The CCL-247 media comprises HyClone McCoy's 5A medium 500 ml, FBS 50 ml, and L-Glutamine 10 ml. Under the biological cabinet, the above solutions were mixed into McCoy's 5A medium 500 ml bottle. The mixture was poured at the top part of filter, a vacuum pump was turned on to filter the mixed medium through. The media was stored at 4° C. after use.
The % growth inhibition is calculated as: […]

Where two headings read alike, the source gives them in different places.

Protocol for SK-Mel-28 melanoma cells: Cells are cultured and grown to sufficient amount for the studies. The shRNA plasmid transfection was performed by electroporation, in the dose of 50 ug/10 million cell. Finally the different ingredients were placed in 96-well plates (media, transfected cells with and without docetaxel, buffer) and incubated at 37° C. with 5% CO2. Growth inhibition was studied using the BrdU Cell Proliferation Assay kit at 24, 48, and 72 hrs.
The cell growth inhibition for each of treatment is calculated from direct OD reading. The % growth inhibition is calculated as:
% growth inhibition of control=ODtreated−ODtreatedNoBrdUcontrol/ODuntreated−ODuntreatedNoBrdUcontrol
wherein, ODtreated: OD reading from the shRNA plasmid and/or docetaxel treated reactant; ODtreatedNoBrdUcontrol: OD reading from the shRNA plasmid and/or docetaxel treated reactant, but without BrdU labeling; ODuntreated: OD reading from reactants without shRNA plasmid or docetaxel treatment; ODuntreatedNoBrdUcontrol: OD reading from reactants without shRNA plasmid or docetaxel treatment, and without BrdU labeling.
The % growth inhibition is calculated and plotted against treatment dose of docetaxel. From the plotted % growth inhibition IC50 is determined from curve for shRNA with/without docetaxel, as well as with docetaxel in different concentrations. IC50—half maximal inhibitory concentration, is a measure of the effectiveness of a compound (docetaxel for this study) in inhibiting biological function (cell growth for this study).

For orientation: IC50 means the concentration that gives 50% inhibition. As to `CC(=O)O[C@@]12CO[C@@H]1C[C@H](O)[C@@]1(C)C(=O)[C@H](O)C3=C(C)[C@@H](OC(=O)[C@H](O)[C@@H](NC(=O)OC(C)(C)C)c4ccccc4)C[C@@](O)([C@@H](OC(=O)c4ccccc4)[C@H]21)C3(C)C` [Docetaxel, docetaxel], the 50% inhibitory concentration (IC50) in the test on SK-Mel-28 melanoma cells (SK-MEL-28, 48 h, read-out: Docetaxel IC50 (mean ± SD), SK-Mel-28, + pbi-shRNA^STMN1, 48 h) was 0.1 nM; with SK-Mel-28 melanoma cells (SK-MEL-28, 48 h, read-out: Docetaxel IC50 (mean ± SD), SK-Mel-28, + scrambled control, 48 h), 1 ± 0.2 nM; in the test on SK-Mel-28 melanoma cells (SK-MEL-28, 48 h, read-out: Docetaxel IC50 (mean ± SD), SK-Mel-28, no ShRNA, 48 h), 1.7 ± 2 nM; with SK-Mel-28 melanoma cells (SK-MEL-28, 72 h, read-out: Docetaxel IC50 (mean ± SD), SK-Mel-28, + pbi-shRNA^STMN1, 72 h), 0.2 ± 0.1 nM; with SK-Mel-28 melanoma cells (SK-MEL-28, 72 h, read-out: Docetaxel IC50 (mean ± SD), SK-Mel-28, + scrambled control, 72 h), 0.9 ± 0.2 nM; with SK-Mel-28 melanoma cells (SK-MEL-28, 72 h, read-out: Docetaxel IC50 (mean ± SD), SK-Mel-28, no ShRNA, 72 h) it was 0.8 ± 0.2 nM. The IC50 turned out to be 0.1 nM in the test on SK-Mel-28 melanoma cells (SK-MEL-28, read-out: IC50 of docetaxel, SK-Mel-28, with STMN1 knockdown (bi-shRNA^STMN1), BrdU, n=3); 1.7 ± 0.2 nM with SK-Mel-28 melanoma cells (SK-MEL-28, read-out: IC50 of docetaxel, SK-Mel-28, without STMN1 knockdown, BrdU, n=3); 0.6 ± 0.4 nM in test [1] (48 h, CCL-247, + pbi-shRNA^STMN1, 48 h, read-out: Docetaxel IC50 (mean ± SD)); 1.8 ± 0.2 nM in test [1] (48 h, CCL-247, no ShRNA, 48 h, read-out: Docetaxel IC50 (mean ± SD)); 0.6 ± 0.4 nM in test [1] (72 h, CCL-247, + pbi-shRNA^STMN1, 72 h, read-out: Docetaxel IC50 (mean ± SD)); 1 ± 0.6 nM in test [1] (72 h, CCL-247, + scrambled control, 72 h, read-out: Docetaxel IC50 (mean ± SD)). Further, the IC50 in test [1] (72 h, CCL-247, no ShRNA, 72 h, read-out: Docetaxel IC50 (mean ± SD)) was 1 ± 0.4 nM; in test [1] (CCL-247, with STMN1 knockdown (bi-shRNA^STMN1), BrdU, n=3, read-out: IC50 of docetaxel) it was 0.6 ± 0.4 nM; in test [1] (CCL-247, without STMN1 knockdown, BrdU, n=3, read-out: IC50 of docetaxel) it was 1.8 ± 0.2 nM. Also, the “cell growth compared to control” value in test [1] (CCL-247, docetaxel alone 1.25 nM, 48 hrs) is “about 70%”.

Source of the values: patent US20110286979A1, “CHEMOSENSITIZATION BY BI-FUNCTIONAL SMALL HAIRPIN RNA (bi-shRNA)” (GRADALIS, INC., priority 2010, published 2011).
